Measured values: US20210322415A1 (priority 2016, published 2021)

What was measured:
c-kit = c-kit (Homo sapiens, UniProt P10721); assay: Target cover in pre-clinical models: modelled mean free plasma concentration vs cellular IC50; format: in vivo; conditions: doses up to 2.4 mg/kg
Protocol: 4.8 mg/kg (FIGS. 1M-1P) following dosing zs regimens of once daily continuous (QDCont), once daily 5 days on 2 days off (QD5on2off), or once daily 4 days (QD4on3off). […] The reduction in PK is shown following the last dose of drug (at either 4 or 5 days dosing), and overlaid on each plot (horizontal lines) are the cellular IC50 values generated in vitro for inhibition of pVEGFR-1,-2, pKit, pPDGFRα and pPDGFRβ, as indicated. For the plots exemplifying VEGFR and Kit cover, R-P stands for receptor phosphorylation in a cell based assay; C-P stands for cell proliferation; for VEGFR plots, T-G stands for tubule growth in an endothelial-fibroblast co-culture assay. […] For the graphs depicting PDGFRα and β cover, inhibition of PDGFRα and PDGFRβ phosphorylation and PDGFBB or PDGFAA driven proliferation are shown together with the relevant cell lines.

[1] = test system: SW620, Calu6 and A498 tumor xenografts; assay: Tumor xenograft efficacy studies with intermittent dosing; format: in vivo, nude or scid mice; conditions: for anti-tumor effects: oral once daily
From the text: Tumors were selected and randomized into groups when tumor volume reached approximately 0.2 cm^3. […] Groups of 10 animals were used, however in the final cycle cohorts of 5 animals were removed in between dosing group to support assessment of pharmacodynamic biomarkers in the tumor.

[2] = test system: OV2022 tumour (ovarian cancer) xenografts; assay: OV2022 patient derived tumour xenograft efficacy study; format: in vivo; conditions: 3 mg/kg, 5 days on 2 days off vs daily, alone or with 100 mg/kg olaparib
tumors = conditions: reported in literature; cited from earlier work

Chain of c-kit (P10721 26-976): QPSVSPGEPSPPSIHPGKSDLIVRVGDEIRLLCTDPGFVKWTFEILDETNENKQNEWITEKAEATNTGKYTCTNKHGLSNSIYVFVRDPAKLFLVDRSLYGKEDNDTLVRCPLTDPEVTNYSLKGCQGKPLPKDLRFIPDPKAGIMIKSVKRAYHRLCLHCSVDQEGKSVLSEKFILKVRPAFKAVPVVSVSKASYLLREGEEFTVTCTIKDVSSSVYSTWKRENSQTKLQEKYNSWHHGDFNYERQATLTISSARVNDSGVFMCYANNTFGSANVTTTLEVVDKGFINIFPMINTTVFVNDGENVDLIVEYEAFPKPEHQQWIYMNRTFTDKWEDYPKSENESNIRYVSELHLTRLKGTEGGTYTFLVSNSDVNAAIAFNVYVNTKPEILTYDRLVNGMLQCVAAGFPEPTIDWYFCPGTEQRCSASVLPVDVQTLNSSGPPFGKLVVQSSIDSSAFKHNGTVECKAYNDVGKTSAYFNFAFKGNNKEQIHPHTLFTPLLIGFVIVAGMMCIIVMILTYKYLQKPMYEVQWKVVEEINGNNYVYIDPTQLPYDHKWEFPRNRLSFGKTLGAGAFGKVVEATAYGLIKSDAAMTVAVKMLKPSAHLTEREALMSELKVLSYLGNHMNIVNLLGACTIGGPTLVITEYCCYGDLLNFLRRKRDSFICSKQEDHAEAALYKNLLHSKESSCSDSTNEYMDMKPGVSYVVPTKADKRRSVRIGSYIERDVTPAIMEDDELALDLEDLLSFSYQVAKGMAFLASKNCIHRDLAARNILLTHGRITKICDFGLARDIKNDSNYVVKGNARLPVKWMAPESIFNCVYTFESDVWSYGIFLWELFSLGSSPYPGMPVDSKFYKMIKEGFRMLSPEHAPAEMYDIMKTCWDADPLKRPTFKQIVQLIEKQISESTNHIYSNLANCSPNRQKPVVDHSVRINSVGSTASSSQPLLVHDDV

target cover versus c-kit (c-kit): achieving target cover
SMILES: COc1cc2c(Oc3ccc4[nH]c(C)cc4c3F)ncnc2cc1OCCCN1CCCC1.O=C(O)/C=C\C(=O)O [cediranib, 4-[(4-fluoro-2-methyl-1H-indol-5-yl)oxy]-6-methoxy-7-[3-(pyrrolidin-1-yl)propoxy]quinazoline maleate]
efficacy (mean tumor volume versus time) ([1]; 1.5 mg/kg, 4/3 schedule, three 7-day cycles (FIG. 5)): in 2 out of the three models intermittent dosing of cediranib at 1.5 mg/kg on a 4/3 schedule maintains efficacy | efficacy (mean tumor volume versus time) ([1]; 1.5 mg/kg, 5/2 schedule, three 7-day cycles (FIG. 3)): maintains efficacy | efficacy (mean tumor volume versus time) ([1]; 3 mg/kg, 4/3 schedule, three 7-day cycles (FIG. 6)): maintains efficacy | efficacy (mean tumor volume versus time) ([1]; 3 mg/kg, 5/2 schedule, three 7-day cycles (FIG. 4)): maintains efficacy | anti-tumor effects ([1]; 4 days on 3 days off schedule): maintains anti-tumor effects albeit at not as effectively as the 5/2 schedule | anti-tumor effects ([1]; 5 days on 2 days off schedule, monotherapy): maintains anti-tumor effects | anti-tumor activity, intermittent compared to daily schedule ([1]; preclinical in vivo data, 5 days on/2 days off vs daily): no difference in anti-tumor activity | efficacy of intermittent schedule versus constant dose [2]: equivalent efficacy | tumor growth in a range of preclinical models (tumors): inhibit the growth of tumors in a dose-dependent manner
